# Assay results: patent US20230365563A1, “QUINAZOLINE COMPOUND AND APPLICATION THEREOF” (SHANGHAI PHARMACEUTICALS HOLDING CO., LTD., priority 2020, published 2023)
# Where a name gives a salt, the structure may show the parent alone.
# Tests used:
# [1] = target: T1, KRAS_WT and SOS1 (Homo sapiens, UniProt P01116); assay: Inhibition of KRAS_WT/SOS1 binding (Cisbio binding kit, 665/615 ratio), Effect Embodiment C; conditions: read-out: GTP-KRAS-WT:SOS1 IC50
# T1 construct: purchased
# Method: The inhibitory ability of small molecule compounds on the binding activity of KRAS_WT and SOS1 was examined by a drug screening system based on the combination of KRAS_WT and SOS1.
# Similarly, the first dilution point of the compound to be tested was its storage solution, and the solution was 3-fold diluted, with 11+0 points of dilution. Echo was used to transfer 0.2 μL gradient diluted solution of the compounds into a 384-well plate, with 2 duplicated wells for each compound, and the final concentration of DMSO was 1%. The solution was centrifuged for 1 min at 1000 rpm/min.
# IC50 of the compounds was fitted by Graphpad Prism 8 nonlinear regression equation: […]
# The IC50 (half inhibitory concentration) of the compound was obtained by using the following nonlinear fitting formula: […]
# [2] = target: T2, KRAS_G12D and cRAF (Homo sapiens, UniProt P01116, G12D); assay: Inhibition of KRAS_G12D/cRAF binding (Cisbio binding kit, 665/615 ratio), Effect Embodiment B; conditions: read-out: GTP-KRAS-G12D:CRAF IC50
# T2 construct: purchased
# T2 sequence (P01116 1-188 isoform P01116-2 G12D): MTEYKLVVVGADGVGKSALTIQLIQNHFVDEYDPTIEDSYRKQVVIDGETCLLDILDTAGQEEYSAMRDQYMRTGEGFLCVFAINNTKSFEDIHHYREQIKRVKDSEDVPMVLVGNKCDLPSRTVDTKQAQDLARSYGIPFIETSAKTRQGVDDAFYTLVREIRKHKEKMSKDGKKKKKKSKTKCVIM
# Method in brief: (§1)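 Compounds underwent 3-fold dilution from their storage solutions (11 points), were transferred to assay wells in duplicate with DMSO held at 1% final, and were briefly centrifuged.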
# [3] = target: T3, KRAS-G12D and SOS1 (Homo sapiens, UniProt P01116, G12D); assay: Inhibition of KRAS-G12D/SOS1 binding (Cisbio binding kit, 665/615 ratio), Effect Embodiment A; conditions: read-out: GTP-KRAS-G12D:SOS1 IC50
# T3 construct: purchased
# T3 sequence (P01116 1-188 isoform P01116-2 G12D): as above
# Method in brief: as §1
# T1 sequence (P01116 1-188 isoform P01116-2): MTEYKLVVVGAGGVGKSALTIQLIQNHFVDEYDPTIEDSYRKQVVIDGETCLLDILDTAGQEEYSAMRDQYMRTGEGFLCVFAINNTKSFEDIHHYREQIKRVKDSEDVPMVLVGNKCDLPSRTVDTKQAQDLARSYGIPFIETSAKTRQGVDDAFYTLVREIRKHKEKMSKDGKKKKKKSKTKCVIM
IC50 [1] [nM],IC50 [2] [nM],IC50 [3] [nM],SMILES
5220,164,53.2,"NCCCOc1nc(N2CC3CCC(C2)N3)c2cc(Cl)c(-c3cc(O)cc4ccccc34)c(F)c2n1 (single isomer, unassigned) [Compound 94, 4-((S or R)-2-(3-aminopropoxy)-4-((1R,5S)-3,8-diazabicyclo[3.2.1]octan-3-yl)-6-chloro-8-fluoroquinazolin-7-yl)naphthalen-2-ol dihydrochloride]"
1540,88.5,22,"CN1CCCC1CCOc1nc(N2CC3CCC(C2)N3)c2cc(Cl)c(-c3cc(O)cc4ccccc34)c(F)c2n1 (single isomer, unassigned) [Compound 96a, 4-((S or R)-4-((1R,5S)-3,8-diazabicyclo[3.2.1]octan-3-yl)-6-chloro-8-fluoro-2-(2-((S or R)-1-methylpyrrolidin-2-yl)ethoxy)quinazolin-7-yl)naphthalen-2-ol]"
2970,156,34.3,"CN1CCCC1CCOc1nc(N2CC3CCC(C2)N3)c2cc(Cl)c(-c3cc(O)cc4ccccc34)c(F)c2n1 (single isomer, unassigned) [Compound 96b, 4-((S or R)-4-((1R,5S)-3,8-diazabicyclo[3.2.1]octan-3-yl)-6-chloro-8-fluoro-2-(2-((R or S)-1-methylpyrrolidin-2-yl)ethoxy)quinazolin-7-yl)naphthalen-2-ol]"
291,15.6,18.9,"Oc1cc(-c2c(Cl)cc3c(N4CC5CCC(C4)N5)nc(OCC4(CN5CCCC5)CC4)nc3c2F)c2ccccc2c1 (single isomer, unassigned) [Compound 97, 4-((S or R)-4-((1R,5S)-3,8-diazabicyclo[3.2.1]octan-3-yl)-6-chloro-8-fluoro-2-((1-(pyrrolidin-1-ylmethyl)cyclopropyl)methoxy)quinazolin-7-yl)naphthalen-2-ol]"
7700,477,95.3,"CN(C)CCCCCOc1nc(N2CC3CCC(C2)N3)c2cc(Cl)c(-c3cc(O)cc4ccccc34)c(F)c2n1 (single isomer, unassigned) [Compound 98, 4-((S or R)-4-((1R,5S)-3,8-diazabicyclo[3.2.1]octan-3-yl)-6-chloro-2-((5-(dimethylamino)pentyl)oxy)-8-fluoroquinazolin-7-yl)naphthalen-2-ol carboxylate]"
2600,168,52.2,"CN1CCN(CCCOc2nc(N3CC4CCC(C3)N4)c3cc(Cl)c(-c4cc(O)cc5ccccc45)c(F)c3n2)CC1 (single isomer, unassigned) [Compound 99, 4-((S or R)-4-((1R,5S)-3,8-diazabicyclo[3.2.1]octan-3-yl)-6-chloro-8-fluoro-2-(3-(4-methylpiperazin-1-yl)propoxy)quinazolin-7-yl)naphthalen-2-ol dihydrochloride]"
504,53.7,19.1,"CN1CC[C@H]1COc1nc(N2CC3CCC(C2)N3)c2cc(Cl)c(-c3cc(O)cc4ccccc34)c(F)c2n1 (single isomer, unassigned) [Compound 100, 4-((S or R)-4-((1R,5S)-3,8-diazabicyclo[3.2.1]octan-3-yl)-6-chloro-8-fluoro-2-(S)-1-methylazetidin-2-yl)methoxy)quinazolin-7-yl)naphthalen-2-ol bitrifluoroacetate]"
2470,182,31.7,"CC(C)NCCCOc1nc(N2CC3CCC(C2)N3)c2cc(Cl)c(-c3cc(O)cc4ccccc34)c(F)c2n1 (single isomer, unassigned) [Compound 101, 4-((S or R)-4-((1R,5S)-3,8-diazabicyclo[3.2.1]octan-3-yl)-6-chloro-8-fluoro-2-(3-(isopropylamino)propoxy)quinazolin-7-yl)naphthalen-2-ol dihydrochloride]"
1100,39,19.8,"CC(C)(COc1nc(N2CC3CCC(C2)N3)c2cc(Cl)c(-c3cc(O)cc4ccccc34)c(F)c2n1)CN1CCCC1 (single isomer, unassigned) [Compound 102, 4-((S or R)-4-((1R,5S)-3,8-diazabicyclo[3.2.1]octan-3-yl)-6-chloro-2-(2,2-dimethyl-3-(pyrrolidin-1-yl)propoxy)-8-fluoroquinazolin-7-yl)naphthalen-2-ol dihydrochloride]"
1260,120,19.4,"CN(CCCCN1CCNCC1)CCCOc1nc(N2C[C@H]3CC[C@@H](C2)N3)c2cc(Cl)c(-c3cc(O)cc4ccccc34)c(F)c2n1 (single isomer, unassigned) [Compound 103, (S or R)-4-(4-((1R,5S)-3,8-diazabicyclo[3.2.1]octan-3-yl)-6-chloro-8-fluoro-2-(3-(methyl(4-(piperazin-1-yl)butyl)amino)propoxy)quinazolin-7-yl)naphthalen-2-ol tetrahydrochloride]"
> 10000,248,40.9,"CN(C)C(C)(C)COc1nc(N2CC3CCC(C2)N3)c2cc(Cl)c(-c3cc(O)cc4ccccc34)c(F)c2n1 (single isomer, unassigned) [Compound 104, 4-((S or R)-4-((1R,5S)-3,8-diazabicyclo[3.2.1]octan-3-yl)-6-chloro-2-(2-(dimethylamino)-2-methylpropoxy)-8-fluoroquinazolin-7-yl)naphthalen-2-ol dihydrochloride]"

# The next lines start with the compound.
SMILES,IC50 [1] [nM],IC50 [2] [nM],IC50 [3] [nM]
"CN(C)C1CCC(Oc2nc(N3CC4CCC(C3)N4)c3cc(Cl)c(-c4cc(O)cc5ccccc45)c(F)c3n2)C1 (single isomer, unassigned) [Compound 70b, 4-((S or R)-4-((1R,5S)-3,8-diazabicyclo[3.2.1]octan-3-yl)-6-chloro-2-((1R,3S or 1S,3R)-3-(dimethylamino)cyclopentyl)oxy)-8-fluoroquinazolin-7-yl)naphthalen-2-ol dihydrochloride]",> 100000,515,66
"CN(C)C1CCC(Oc2nc(N3CC4CCC(C3)N4)c3cc(Cl)c(-c4cc(O)cc5ccccc45)c(F)c3n2)C1 (single isomer, unassigned) [Compound 70c, 4-((S or R)-4-((1R,5S)-3,8-diazabicyclo[3.2.1]octan-3-yl)-6-chloro-2-((1S,3S or 1R,3R)-3-(dimethylamino)cyclopentyl)oxy)-8-fluoroquinazolin-7-yl)naphthalen-2-ol dihydrochloride]",38300,417,74.1
"CN(C)C1CCC(Oc2nc(N3CC4CCC(C3)N4)c3cc(Cl)c(-c4cc(O)cc5ccccc45)c(F)c3n2)C1 (single isomer, unassigned) [Compound 70d, 4-((S or R)-4-((1R,5S)-3,8-diazabicyclo[3.2.1]octan-3-yl)-6-chloro-2-((1R,3R or 1S,3S)-3-(dimethylamino)cyclopentyl)oxy)-8-fluoroquinazolin-7-yl)naphthalen-2-ol dihydrochloride]",60500,356,93.9
"CN1CCC[C@H]1COc1nc(N2CC3CCC(C2)N3)c2cc(Cl)c(-c3cc(O)c(F)c4ccccc34)c(F)c2n1 (single isomer, unassigned) [Compound 89a, (S or R)-4-(4-((1R,5S)-3,8-diazabicyclo[3.2.1]octan-3-yl)-6-chloro-8-fluoro-2-(S)-1-methylpyrrolidin-2-yl)methoxy)quinazolin-7-yl)-1-fluoronaphthalen-2-ol hydrochloride]",2190,110,47.7
"CN1CC(COc2nc(N3CC4CCC(C3)N4)c3cc(Cl)c(-c4cc(O)cc5ccccc45)c(F)c3n2)C1 (single isomer, unassigned) [Compound 91, 4-((S or R)-4-((1R,5S)-3,8-diazabicyclo[3.2.1]octan-3-yl)-6-chloro-8-fluoro-2-((1-methylazetidin-3-yl)methoxy)quinazolin-7-yl)naphthalen-2-ol tritrifluoroacetate]",1100,78.2,15.1
"Oc1cc(-c2c(Cl)cc3c(N4CC5CCC(C4)N5)nc(OCCCN4CCNCC4)nc3c2F)c2ccccc2c1 (single isomer, unassigned) [Compound 92, 4-((S or R)-4-((1R,5S)-3,8-diazabicyclo[3.2.1]octan-3-yl)-6-chloro-8-fluoro-2-(3-(piperazin-1-yl)propoxy)quinazolin-7-yl)naphthalen-2-ol dihydrochloride]",4710,139,37.4
"CNCCCOc1nc(N2CC3CCC(C2)N3)c2cc(Cl)c(-c3cc(O)cc4ccccc34)c(F)c2n1 (single isomer, unassigned) [Compound 93, 4-((S or R)-4-((1R,5S)-3,8-diazabicyclo[3.2.1]octan-3-yl)-6-chloro-8-fluoro-2-(3-(methylamino)propoxy)quinazolin-7-yl)naphthalen-2-ol dihydrochloride]",2030,82.1,12.3
"NCCCCOc1nc(N2CC3CCC(C2)N3)c2cc(Cl)c(-c3cc(O)cc4ccccc34)c(F)c2n1 (single isomer, unassigned) [Compound 95, 4-((S or R)-2-(4-aminobutoxy)-4-((1R,5S)-3,8-diazabicyclo[3.2.1]octan-3-yl)-6-chloro-8-fluoroquinazolin-7-yl)naphthalen-2-ol dihydrochloride]",6660,284,48.2
